Data published in the NIST ThermoML archive (doi:10.1016/j.jct.2012.04.018).
“And” between values parts separate entries of the source, which are not always exact repeats. Identical values can stand only once. Numbers after ± are expanded uncertainties.

How the values were obtained:
[1] = refractive index (other wavelength) (dimensionless); xn = mol fraction of the nth substance listed; conditions: 290.9 K, 101 kPa, Liquid, Wavelength=632.8 nm, He-Ne laser
[2] = heat capacity at constant pressure per volume; xn = mol fraction of the nth substance listed; conditions: 101 kPa, Liquid, DSC, calvet, x2 = 0.44

`N#Cc1ccccc1` [benzonitrile] + CCCCCCCCCCC showed a refractive index ([1]; x2 = 0.133) of 1.5005 ± 0.0004, a refractive index ([1]; x2 = 0.212) of 1.4877 ± 0.0004 and a refractive index ([1]; x2 = 0.336) of 1.4708 ± 0.0004. For the same compound, the refractive index ([1]; x2 = 0.42) was 1.4607 ± 0.0004, the refractive index ([1]; x2 = 0.512) was 1.4513 ± 0.0003 and the refractive index ([1]; x2 = 0.606) was 1.443 ± 0.0003. It also gave a refractive index ([1]; x2 = 0.704) of 1.4351 ± 0.0003, a refractive index ([1]; x2 = 0.799) of 1.4285 ± 0.0003 and a refractive index ([1]; x2 = 0.902) of 1.4222 ± 0.0003. The heat capacity ([2]; 286.54 K) was 1846500 ± 14000 J/K/m3, the heat capacity ([2]; 286.76 K) was 1854000 ± 14000 J/K/m3 and the heat capacity ([2]; 286.99 K) was 1862200 ± 15000 J/K/m3. The heat capacity ([2]; 287.22 K) was 1857300 ± 14000 J/K/m3, the heat capacity ([2]; 287.45 K) was 1862800 ± 14000 J/K/m3 and the heat capacity ([2]; 287.68 K) was 1867600 ± 14000 J/K/m3. It also gave a heat capacity ([2]; 287.91 K) of 1870300 ± 14000 J/K/m3, a heat capacity ([2]; 288.14 K) of 1878500 ± 15000 J/K/m3 and a heat capacity ([2]; 288.37 K) of 1879100 ± 15000 J/K/m3. For the same compound, the heat capacity ([2]; 288.6 K) was 1887700 ± 15000 J/K/m3, the heat capacity ([2]; 288.83 K) was 1896600 ± 15000 J/K/m3 and the heat capacity ([2]; 288.94 K) was 1895600 ± 15000 J/K/m3. For the same compound, the heat capacity ([2]; 289.06 K) was 1899000 ± 16000 J/K/m3, the heat capacity ([2]; 289.17 K) was 1913500 ± 16000 J/K/m3 and the heat capacity ([2]; 289.29 K) was 1889000 ± 12000 J/K/m3. It also gave a heat capacity ([2]; 289.4 K) of 1931900 ± 16000 J/K/m3, a heat capacity ([2]; 289.43 K) of 1910800 ± 15000 J/K/m3 and a heat capacity ([2]; 289.46 K) of 1918000 ± 16000 J/K/m3. It also gave a heat capacity ([2]; 289.5 K) of 1946800 ± 18000 J/K/m3, a heat capacity ([2]; 289.53 K) of 1960500 ± 18000 J/K/m3 and a heat capacity ([2]; 289.56 K) of 1952300 ± 18000 J/K/m3. The heat capacity ([2]; 289.6 K) was 1953700 ± 17000 J/K/m3, the heat capacity ([2]; 289.63 K) was 1973800 ± 18000 J/K/m3 and the heat capacity ([2]; 289.67 K) was 1984300 ± 21000 J/K/m3. It also gave a heat capacity ([2]; 289.7 K) of 1990700 ± 20000 J/K/m3, a heat capacity ([2]; 289.74 K) of 1995400 ± 23000 J/K/m3 and a heat capacity ([2]; 289.75 K) of 2003100 ± 19000 J/K/m3. For the same compound, the heat capacity ([2]; 289.77 K) was 2011400 ± 22000 J/K/m3, the heat capacity ([2]; 289.78 K) was 2022500 ± 25000 J/K/m3 and the heat capacity ([2]; 289.79 K) was 2035800 ± 26000 J/K/m3. It also gave a heat capacity ([2]; 289.8 K) of 2046300 ± 26000 J/K/m3, a heat capacity ([2]; 289.81 K) of 2053900 ± 28000 J/K/m3 and a heat capacity ([2]; 289.82 K) of 2063600 ± 28000 J/K/m3. For the same compound, the heat capacity ([2]; 289.83 K) was 2084100 ± 29000 J/K/m3, the heat capacity ([2]; 289.85 K) was 2111800 ± 35000 J/K/m3 and the heat capacity ([2]; 289.86 K) was 2155800 ± 53000 J/K/m3 and 2141800 ± 67000 J/K/m3 and 2104500 ± 120000 J/K/m3. The heat capacity ([2]; 289.87 K) was 2067700 ± 510000 J/K/m3 and 2029900 ± 150000 J/K/m3 and 1997600 ± 66000 J/K/m3, the heat capacity ([2]; 289.88 K) was 1943900 ± 39000 J/K/m3 and 1858200 ± 29000 J/K/m3 and the heat capacity ([2]; 289.89 K) was 1823500 ± 26000 J/K/m3. It also gave a heat capacity ([2]; 289.9 K) of 1809500 ± 24000 J/K/m3, a heat capacity ([2]; 289.92 K) of 1795800 ± 27000 J/K/m3 and a heat capacity ([2]; 289.93 K) of 1786900 ± 29000 J/K/m3. For the same compound, the heat capacity ([2]; 289.94 K) was 1780500 ± 28000 J/K/m3, the heat capacity ([2]; 289.95 K) was 1778700 ± 32000 J/K/m3 and the heat capacity ([2]; 289.98 K) was 1770500 ± 36000 J/K/m3. For the same compound, the heat capacity ([2]; 290.01 K) was 1757500 ± 12000 J/K/m3, the heat capacity ([2]; 290.04 K) was 1756200 ± 12000 J/K/m3 and the heat capacity ([2]; 290.06 K) was 1746900 ± 11000 J/K/m3. For the same compound, the heat capacity ([2]; 290.09 K) was 1748200 ± 9900 J/K/m3, the heat capacity ([2]; 290.12 K) was 1747000 ± 10000 J/K/m3 and the heat capacity ([2]; 290.15 K) was 1739100 ± 10000 J/K/m3. For the same compound, the heat capacity ([2]; 290.18 K) was 1736600 ± 10000 J/K/m3, the heat capacity ([2]; 290.21 K) was 1740600 ± 9500 J/K/m3 and the heat capacity ([2]; 290.24 K) was 1732400 ± 9900 J/K/m3. For the same compound, the heat capacity ([2]; 290.27 K) was 1728300 ± 9700 J/K/m3, the heat capacity ([2]; 290.44 K) was 1721500 ± 9200 J/K/m3 and the heat capacity ([2]; 290.64 K) was 1711900 ± 8600 J/K/m3. It also gave a heat capacity ([2]; 290.84 K) of 1707300 ± 8400 J/K/m3, a heat capacity ([2]; 291.04 K) of 1702300 ± 8600 J/K/m3 and a heat capacity ([2]; 291.24 K) of 1698500 ± 8400 J/K/m3. It also gave a heat capacity ([2]; 291.44 K) of 1694500 ± 8400 J/K/m3, a heat capacity ([2]; 291.64 K) of 1693500 ± 8400 J/K/m3 and a heat capacity ([2]; 291.85 K) of 1691400 ± 8600 J/K/m3. The heat capacity ([2]; 292.05 K) was 1688200 ± 8400 J/K/m3, the heat capacity ([2]; 292.25 K) was 1688500 ± 8400 J/K/m3 and the heat capacity ([2]; 292.45 K) was 1685900 ± 8400 J/K/m3. It also gave a heat capacity ([2]; 292.65 K) of 1684300 ± 8200 J/K/m3, a heat capacity ([2]; 292.85 K) of 1683400 ± 8200 J/K/m3 and a heat capacity ([2]; 293.19 K) of 1682100 ± 7800 J/K/m3. For the same compound, the heat capacity ([2]; 293.43 K) was 1680500 ± 7600 J/K/m3, the heat capacity ([2]; 293.65 K) was 1678500 ± 8000 J/K/m3 and the heat capacity ([2]; 293.88 K) was 1679000 ± 7600 J/K/m3. For the same compound, the heat capacity ([2]; 294.11 K) was 1678400 ± 7800 J/K/m3, the heat capacity ([2]; 294.34 K) was 1676100 ± 7800 J/K/m3 and the heat capacity ([2]; 294.57 K) was 1675700 ± 7400 J/K/m3. It also gave a heat capacity ([2]; 294.8 K) of 1675100 ± 7800 J/K/m3, a heat capacity ([2]; 295.11 K) of 1673900 ± 800 J/K/m3 and a heat capacity ([2]; 295.85 K) of 1672100 ± 800 J/K/m3. It also gave a heat capacity ([2]; 296.59 K) of 1670800 ± 800 J/K/m3, a heat capacity ([2]; 297.34 K) of 1670100 ± 800 J/K/m3 and a heat capacity ([2]; 298.08 K) of 1669100 ± 800 J/K/m3. The heat capacity ([2]; 298.82 K) was 1667900 ± 800 J/K/m3, the heat capacity ([2]; 299.57 K) was 1667300 ± 800 J/K/m3 and the heat capacity ([2]; 300.31 K) was 1667200 ± 800 J/K/m3. The heat capacity ([2]; 301.05 K) was 1666300 ± 800 J/K/m3, the heat capacity ([2]; 301.8 K) was 1666200 ± 800 J/K/m3 and the heat capacity ([2]; 302.54 K) was 1665900 ± 600 J/K/m3. For the same compound, the heat capacity ([2]; 303.29 K) was 1665200 ± 600 J/K/m3, the heat capacity ([2]; 304.03 K) was 1665100 ± 600 J/K/m3 and the heat capacity ([2]; 304.77 K) was 1665400 ± 600 J/K/m3. It also gave a heat capacity ([2]; 305.52 K) of 1665600 ± 600 J/K/m3, a heat capacity ([2]; 306.26 K) of 1665000 ± 600 J/K/m3 and a heat capacity ([2]; 307 K) of 1664800 ± 600 J/K/m3. It also gave a heat capacity ([2]; 307.75 K) of 1665500 ± 600 J/K/m3, a heat capacity ([2]; 308.49 K) of 1665600 ± 600 J/K/m3 and a heat capacity ([2]; 309.23 K) of 1665400 ± 600 J/K/m3. The heat capacity ([2]; 309.98 K) was 1665500 ± 600 J/K/m3, the heat capacity ([2]; 310.72 K) was 1665900 ± 600 J/K/m3 and the heat capacity ([2]; 311.46 K) was 1666400 ± 600 J/K/m3. The heat capacity ([2]; 312.21 K) was 1666000 ± 600 J/K/m3, the heat capacity ([2]; 312.95 K) was 1665700 ± 600 J/K/m3 and the heat capacity ([2]; 313.69 K) was 1666100 ± 600 J/K/m3. The heat capacity ([2]; 314.44 K) was 1667100 ± 600 J/K/m3, the heat capacity ([2]; 315.18 K) was 1666800 ± 600 J/K/m3 and the heat capacity ([2]; 315.92 K) was 1667700 ± 600 J/K/m3. It also gave a heat capacity ([2]; 316.67 K) of 1668100 ± 600 J/K/m3, a heat capacity ([2]; 317.41 K) of 1667700 ± 600 J/K/m3 and a heat capacity ([2]; 318.15 K) of 1667700 ± 600 J/K/m3. It also gave a heat capacity ([2]; 318.9 K) of 1668700 ± 600 J/K/m3, a heat capacity ([2]; 319.64 K) of 1667900 ± 600 J/K/m3 and a heat capacity ([2]; 320.69 K) of 1668700 ± 600 J/K/m3. For the same compound, the heat capacity ([2]; 321.75 K) was 1669700 ± 600 J/K/m3, the heat capacity ([2]; 322.8 K) was 1669700 ± 600 J/K/m3 and the heat capacity ([2]; 323.86 K) was 1670100 ± 600 J/K/m3. For the same compound, the heat capacity ([2]; 324.91 K) was 1671400 ± 600 J/K/m3.
